Test results taken from publication PMC8445441, “Elucidating the mechanism by which synthetic helper peptides sensitize Pseudomonas aeruginosa to multiple antibiotics” (PLoS Pathogens, 2021).
Read-outs that look alike come from different tables or passages of the source. One block for each compound: values may come before it.

Legend:
[1] = system: P. aeruginosa HM-214; conditions: strain HM-214; antibiotic + D-11 (MICb/MICbc 128/4)
Method in brief: (§1)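 Triplicate microdilution MICs: MHB, two-fold series, equal-volume inoculum from ~1 × 10^6 CFU/mL suspension, 37 °C, 18 h, lowest concentration lacking visible growth.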

[2] = system: P. aeruginosa AUMC-Pa-5; assay: microbe, parasite or virus in culture; conditions: strain AUMC-Pa-5; for FICI: antibiotic + D-11 (MICb/MICbc 64/4); for MICa: MIC of the antibiotic: antibiotic alone; for MICa: MIC of the antibiotic / MICac: MIC of the antibiotic in the combination: unit not given; for MICac: MIC of the antibiotic in the combination: with D-11 at MICbc 4
Method in brief: as §1

[3] = system: P. aeruginosa AUMC-Pa-4; assay: microbe, parasite or virus in culture; conditions: for FICI: antibiotic + D-11 (MICb/MICbc 128/4); for MICac: MIC of the antibiotic in the combination: with D-11 at MICbc 4
Method in brief: as §1

[4] = system: P. aeruginosa PAO1; assay: microbe, parasite or virus in culture; conditions: PAO1; for MIC: Pseudomonas aeruginosa, PAO1, 18 h, read-out: MICa: the MIC of antibiotics, S3 Table, antibiotic alone; for FICI / MICac: the MIC for the antibiotic in the combination: S3 Table
Method in brief: as §1

[5] = system: P. aeruginosa AUMC-Pa-6; assay: microbe, parasite or virus in culture; conditions: strain AUMC-Pa-6; for FICI: antibiotic + D-11 (MICb/MICbc 64/4); for MICa: MIC of the antibiotic: antibiotic alone; for MICa: MIC of the antibiotic / MICac: MIC of the antibiotic in the combination: unit not given; for MICac: MIC of the antibiotic in the combination: with D-11 at MICbc 4
Method in brief: as §1

[6] = system: P. aeruginosa AUMC-Pa-3; assay: microbe, parasite or virus in culture; conditions: for MIC: Pseudomonas aeruginosa, AUMCPA3, 18 h, read-out: MICa: MIC of the antibiotic; for FICI / MICac: MIC of the antibiotic in the combination: strain AUMC-Pa-3; for FICI: antibiotic + D-11 (MICb/MICbc 128/4); for MICac: MIC of the antibiotic in the combination: with D-11 at MICbc 4, unit not given
Method in brief: as §1

[7] = system: P. aeruginosa AUMC-Pa-1; conditions: strain AUMC-Pa-1; antibiotic + D-11 (MICb/MICbc 128/4)
Method in brief: as §1

[8] = system: P. aeruginosa AUMC-Pa-2; conditions: strain AUMC-Pa-2; antibiotic + D-11 (MICb/MICbc 64/4)
Method in brief: as §1

[9] = system: clinical P. aeruginosa isolates; assay: microbe, parasite or virus in culture; conditions: Pseudomonas aeruginosa, 18 h, antibiotic alone
Method in brief: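 MIC is the lowest drug concentration showing no visible growth after 18 h at 37 °C. Two-fold dilutions in MHB were combined with an equal volume of bacterial suspension (about 1 × 10^6 CFU/mL), following CLSI broth microdilution, in triplicate.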

[10] = system: P. aeruginosa NR-31040; assay: microbe, parasite or virus in culture; set-up: MICa: MIC of the antibiotic / MICac: MIC of the antibiotic in the combination: unit not given beside the values; conditions: for FICI: antibiotic + D-11 (MICb/MICbc 128/4); for MICac: MIC of the antibiotic in the combination: with D-11 at MICbc 4
Method in brief: as §1

[11] = system: P. aeruginosa PA14; assay: microbe, parasite or virus in culture; set-up: MICa: MIC of the antibiotic / MICac: MIC of the antibiotic in the combination: unit not given beside the values; conditions: for MIC: Pseudomonas aeruginosa, PA14, 18 h, read-out: MICa: MIC of the antibiotic; for FICI / MICac: MIC of the antibiotic in the combination: strain PA14; for FICI: antibiotic + D-11 (MICb/MICbc 128/4); for MICac: MIC of the antibiotic in the combination: with D-11 at MICbc 4, unit not given
Method in brief: as §1

[12] = system: P. aeruginosa ATCC27853; assay: microbe, parasite or virus in culture; set-up: MICa: MIC of the antibiotic / MICac: MIC of the antibiotic in the combination: unit not given beside the values; conditions: for MIC: Pseudomonas aeruginosa, ATCC27853, 18 h, read-out: MICa: MIC of the antibiotic; for FICI / MICac: MIC of the antibiotic in the combination: strain ATCC27853; for FICI: antibiotic + D-11 (MICb/MICbc 32/4); for MICac: MIC of the antibiotic in the combination: with D-11 at MICbc 4, unit not given
Method in brief: as §1

[13] = system: P. aeruginosa PAK; assay: microbe, parasite or virus in culture; set-up: MICa: MIC of the antibiotic / MICac: MIC of the antibiotic in the combination: unit not given beside the values; conditions: for MIC: Pseudomonas aeruginosa, 18 h, read-out: MICa: MIC of the antibiotic; for FICI / MICac: MIC of the antibiotic in the combination: strain PAK; for FICI: antibiotic + D-11 (MICb/MICbc 64/4); for MICac: MIC of the antibiotic in the combination: with D-11 at MICbc 4, unit not given
Method in brief: as §1

[14] = system: P. aeruginosa NR-31041; assay: microbe, parasite or virus in culture; set-up: MICa: MIC of the antibiotic / MICac: MIC of the antibiotic in the combination: unit not given beside the values; conditions: for MIC: Pseudomonas aeruginosa, NR31041, 18 h, read-out: MICa: MIC of the antibiotic; for FICI / MICac: MIC of the antibiotic in the combination: strain NR-31041; for FICI: antibiotic + D-11 (MICb/MICbc 64/4); for MICac: MIC of the antibiotic in the combination: with D-11 at MICbc 4, unit not given
Method in brief: as §1

[15] = strain AUMC-Pa-4, unit not given
[16] = read-out: Antibiotic sensibility (MIC) of clinical P. aeruginosa isolate AUMC-Pa-1, strain AUMC-Pa-1
[17] = read-out: Antibiotic sensibility (MIC) of clinical P. aeruginosa isolate AUMC-Pa-2, strain AUMC-Pa-2
[18] = read-out: Antibiotic sensibility (MIC) of clinical P. aeruginosa isolate AUMC-Pa-3, strain AUMC-Pa-3
[19] = read-out: Antibiotic sensibility (MIC) of clinical P. aeruginosa isolate AUMC-Pa-4, strain AUMC-Pa-4
[20] = read-out: Antibiotic sensibility (MIC) of clinical P. aeruginosa isolate AUMC-Pa-5, strain AUMC-Pa-5
[21] = read-out: Antibiotic sensibility (MIC) of clinical P. aeruginosa isolate AUMC-Pa-6, strain AUMC-Pa-6
[22] = read-out: Antibiotic sensibility (MIC) of clinical P. aeruginosa isolate HM-214, strain HM-214
[23] = read-out: Antibiotic sensibility (MIC) of clinical P. aeruginosa isolate NR-31040, strain NR-31040
[24] = read-out: Antibiotic sensibility (MIC) of clinical P. aeruginosa isolate NR-31041, strain NR-31041
[25] = strain NR-31040, unit not given

MICa: MIC of the antibiotic [2]: 32
MICac: MIC of the antibiotic in the combination [2]: 16
MIC ([3]; Pseudomonas aeruginosa, AUMCPA4, 18 h, read-out: MICa: MIC of the antibiotic): 16 µM
MICac: MIC of the antibiotic in the combination [3, 15]: 0.5
MIC [4]: 32 µM
MICac: the MIC for the antibiotic in the combination ([4]; with 2 μM D-11): 0.125 µM
MICac: the MIC for the antibiotic in the combination ([4]; with 4 μM D-11): 0.03125 µM
MICa: MIC of the antibiotic [5]: 16
MICac: MIC of the antibiotic in the combination [5]: 2
MIC [6]: 8 µM
MICac: MIC of the antibiotic in the combination [6]: 0.031
MIC [9, 16]: 16 µM
MIC [9, 17]: 8 µM
MIC [9, 18]: 8 µM
MIC [9, 19]: 16 µM
MIC [9, 20]: 32 µM
MIC [9, 21]: 16 µM
MIC [9, 22]: 8 µM
MIC [9, 23]: 8 µM
MIC [9, 24]: 16 µM
MIC ([10]; Pseudomonas aeruginosa, NR31040, 18 h, read-out: MICa: MIC of the antibiotic): 8 µM
MICac: MIC of the antibiotic in the combination [10, 25]: 0.5
MIC [11]: > 128 µM
MICac: MIC of the antibiotic in the combination [11]: 8
MIC [12]: 32 µM
MICac: MIC of the antibiotic in the combination [12]: 0.031
MIC [13]: 16 µM
MICac: MIC of the antibiotic in the combination [13]: 0.125
MIC [14]: 16 µM
MICac: MIC of the antibiotic in the combination [14]: 0.063
SMILES: CO[C@H]1/C=C/O[C@@]2(C)Oc3c(C)c(O)c4c(O)c(c(/C=N/N5CCN(C6CCCC6)CC5)c(O)c4c3C2=O)NC(=O)/C(C)=C\C=C\[C@H](C)[C@H](O)[C@@H](C)[C@@H](O)[C@@H](C)[C@H](OC(C)=O)[C@@H]1C [Rifapentine]
FICI [1]: 0.063
FICI [2]: 0.563
FICI ([3]; strain AUMC-Pa-4): 0.063
FICI ([4]; antibiotic + 2 μM D-11): 0.066
FICI ([4]; antibiotic + 4 μM D-11): 0.126
FICI [5]: 0.188
FICI [6]: 0.035
FICI [7]: 0.035
FICI [8]: 0.066
FICI ([10]; strain NR-31040): 0.094
FICI [11]: 0.063
FICI [12]: 0.133
FICI [13]: 0.070
FICI [14]: 0.066

MICa: MIC of the antibiotic [2]: 32
MICac: MIC of the antibiotic in the combination [2]: 8
MICa: MIC of the antibiotic ([3]; strain AUMC-Pa-4, antibiotic alone, unit not given): 8
MICac: MIC of the antibiotic in the combination [3, 15]: 2
MIC [4]: 16 µM
MICac: the MIC for the antibiotic in the combination ([4]; with 2 μM D-11): 0.0625 µM
MICac: the MIC for the antibiotic in the combination ([4]; with 4 μM D-11): 0.03125 µM
MICa: MIC of the antibiotic [5]: 16
MICac: MIC of the antibiotic in the combination [5]: 4
MIC [6]: 8 µM
MICac: MIC of the antibiotic in the combination [6]: 0.25
MIC [9, 16]: 32 µM
MIC [9, 17]: 8 µM
MIC [9, 18]: 8 µM
MIC [9, 19]: 8 µM
MIC [9, 20]: 32 µM
MIC [9, 21]: 16 µM
MIC [9, 22]: 8 µM
MIC [9, 23]: 16 µM
MIC [9, 24]: 16 µM
MICa: MIC of the antibiotic ([10]; strain NR-31040, antibiotic alone, unit not given): 16
MICac: MIC of the antibiotic in the combination [10, 25]: 1
MIC [11]: > 128 µM
MICac: MIC of the antibiotic in the combination [11]: 16
MIC [12]: 16 µM
MICac: MIC of the antibiotic in the combination [12]: 0.5
MIC [13]: 16 µM
MICac: MIC of the antibiotic in the combination [13]: 0.5
MIC [14]: 16 µM
MICac: MIC of the antibiotic in the combination [14]: 0.25
SMILES: CO[C@H]1/C=C/O[C@@]2(C)Oc3c(C)c(O)c4c(O)c(c5c(nc6cc(C)ccn65)c4c3C2=O)NC(=O)/C(C)=C\C=C\[C@H](C)[C@H](O)[C@@H](C)[C@@H](O)[C@@H](C)[C@H](OC(C)=O)[C@@H]1C [Rifaximin]
FICI [1]: 0.063
FICI [2]: 0.313
FICI ([3]; strain AUMC-Pa-4): 0.281
FICI ([4]; antibiotic + 2 μM D-11): 0.066
FICI ([4]; antibiotic + 4 μM D-11): 0.127
FICI [5]: 0.313
FICI [6]: 0.063
FICI [7]: 0.047
FICI [8]: 0.094
FICI ([10]; strain NR-31040): 0.094
FICI [11]: 0.094
FICI [12]: 0.156
FICI [13]: 0.094
FICI [14]: 0.078
